How the values were obtained:
[1] = target: T1, IRAK4 (Homo sapiens, UniProt Q9NWZ3); test: IRAK4 Degradation Assay with Human Serum (Karpas299, HTRF/TR-FRET); format: cell-based; conditions: Karpas-299 in human serum, 24 hrs treatment; for DC50: read-out: IRAK4 degradtion with human serum assay DC50; for Dmax: read-out: IRAK4 degradtion with human serum assay Dmax (%)
T1 construct: endogenous in cells; host or cells: Karpas299
T1 sequence (Q9NWZ3 1-460): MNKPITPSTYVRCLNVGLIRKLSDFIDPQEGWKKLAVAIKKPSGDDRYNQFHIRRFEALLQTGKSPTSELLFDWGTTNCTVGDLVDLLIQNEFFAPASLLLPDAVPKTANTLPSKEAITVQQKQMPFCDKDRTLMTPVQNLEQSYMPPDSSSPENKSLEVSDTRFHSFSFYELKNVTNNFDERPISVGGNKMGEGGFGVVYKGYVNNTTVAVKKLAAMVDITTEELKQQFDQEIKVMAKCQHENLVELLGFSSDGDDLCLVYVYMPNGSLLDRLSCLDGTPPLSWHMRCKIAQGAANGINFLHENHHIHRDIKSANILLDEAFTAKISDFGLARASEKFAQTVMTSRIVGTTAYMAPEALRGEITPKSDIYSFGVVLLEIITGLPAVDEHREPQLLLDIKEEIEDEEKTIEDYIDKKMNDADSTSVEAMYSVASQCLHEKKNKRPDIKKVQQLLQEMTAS
In short: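 Remaining IRAK4 measured by TR-FRET immunoassay on lysates of Karpas299 cells exposed 24 h to compound dilution series in human serum AB. DC50 derived from a Hill-slope fit of % degradation versus concentration.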

[2] = target: T1, IRAK4; test: IRAK4 Degradation Assay (Karpas299, HTRF/TR-FRET); format: cell-based; conditions: Karpas-299 cells; for Dmax: maximum percentage of degradation
In short: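 Compound potency as DC50 (IC50) came from four-parameter fits of percent IRAK4 degradation. IRAK4 was measured by HTRF (665/620 nm) in lysates of Karpas299 cells seeded at 0.2 million per well. Cells had been treated with compound dilutions for 5 or 24 h.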

[3] = 24 h treatment, read-out: IRAK4 in Karpas-299 (24 h) Dmax (%)
[4] = 24 h treatment, read-out: IRAK4 in Karpas-299 (24 h) DC50
[5] = 5 h treatment, read-out: IRAK4 in Karpas-299 (5 h) Dmax (%)
[6] = 5 h treatment, read-out: IRAK4 in Karpas-299 (5 h) DC50

Row | SMILES | DC50 [1] [nM] | Dmax [1] [%] | Dmax [2, 3] [%] | DC50 [2, 4] [nM] | Dmax [2, 5] [%] | DC50 [2, 6] [nM]
1 | COC[C@H]1CN(C(=O)C2CN(c3cc(F)c([C@H]4CCC(=O)NC4=O)c(F)c3)C2)CCN1[C@H]1CC[C@H](n2cc3cc(NC(=O)c4ccc5cc(C#N)cnn45)c(C(C)(C)O)cc3n2)CC1 [Example 184, 3-cyano-N-(2-((1R,4r)-4-((R)-4-(1-(4-((R)-2,6-dioxopiperidin-3-yl)-3,5-difluorophenyl)azetidine-3-carbonyl)-2-(methoxymethyl)piperazin-1-yl)cyclohexyl)-6-(2-hydroxypropan-2-yl)-2H-indazol-5-yl)pyrrolo[1,2-b]pyridazine-7-carboxamide] | 126 | 97 | 96 | 0.7 |  | 
2 | C[C@H]1CN(C2CCN(c3cc(F)c([C@H]4CCC(=O)NC4=O)c(F)c3)CC2)CCN1[C@H]1CC[C@H](n2cc3cc(NC(=O)c4ccc5cc(C#N)cnn45)c(C(C)(C)O)cc3n2)CC1 [Example 307, 3-cyano-N-(2-((1S,4r)-4-((S)-4-(1-(4-((R)-2,6-dioxopiperidin-3-yl)-3,5-difluorophenyl)piperidin-4-yl)-2-methylpiperazin-1-yl)cyclohexyl)-6-(2-hydroxypropan-2-yl)-2H-indazol-5-yl)pyrrolo[1,2-b]pyridazine-7-carboxamide] | 3.6 | 99 | 100 | 0.5 |  | 
3 | CC(C)(O)c1cc2nn([C@H]3CC[C@H](N4CCN(C(=O)C5CN(c6ccc(C7CCC(=O)NC7=O)nc6)C5)CC4)CC3)cc2cc1NC(=O)c1ccc2cc(C#N)cnn12 (stereo partly drawn) [Example 255, 3-cyano-N-(2-((1r,4r)-4-(4-(1-(6-(2,6-dioxopiperidin-3-yl)pyridin-3-yl)azetidine-3-carbonyl)piperazin-1-yl)cyclohexyl)-6-(2-hydroxypropan-2-yl)-2H-indazol-5-yl)pyrrolo[1,2-b]pyridazine-7-carboxamide] | 7.8 | 96 | 97 | 1.2 | 96 | 2.7
4 | CC(C)(O)C[C@H]1CN(CCc2cc(F)c([C@H]3CCC(=O)NC3=O)c(F)c2)CCN1[C@H]1CC[C@H](n2cc3cc(NC(=O)c4ccc5cc(C#N)cnn45)c(C(C)(C)O)cc3n2)CC1 [Example 369, 3-cyano-N-(2-((1S,4r)-4-((S)-4-(4-((R)-2,6-dioxopiperidin-3-yl)-3,5-difluorophenethyl)-2-(2-hydroxy-2-methylpropyl)piperazin-1-yl)cyclohexyl)-6-(2-hydroxypropan-2-yl)-2H-indazol-5-yl)pyrrolo[1,2-b]pyridazine-7-carboxamide] | 3 | 97 | 96 | 0.6 |  | 
5 | CCc1cc(N2CC(C(=O)N3CCN([C@H]4CC[C@H](n5cc6cc(NC(=O)c7ccc8cc(C#N)cnn78)c(C(C)(C)O)cc6n5)CC4)CC3)C2)ccc1N1CCC(=O)NC1=O [Example 257, 3-cyano-N-(2-((1r,4r)-4-(4-(1-(4-(2,4-dioxotetrahydropyrimidin-1(2H)-yl)-3-ethylphenyl)azetidine-3-carbonyl)piperazin-1-yl)cyclohexyl)-6-(2-hydroxypropan-2-yl)-2H-indazol-5-yl)pyrrolo[1,2-b]pyridazine-7-carboxamide] | 28 | 97 | 97 | 1.7 |  | 
6 | CC(C)(O)c1cc2nn([C@H]3CC[C@H](N4CCN([C@@H]5CCN(c6cc(F)c(C7CCC(=O)NC7=O)c(F)c6)C5)CC4)CC3)cc2cc1NC(=O)c1ccc2cc(C#N)cnn12 (stereo partly drawn) [Example 396, 3-cyano-N-(2-((1R,4r)-4-(4-((3R)-1-(4-(2,6-dioxopiperidin-3-yl)-3,5-difluorophenyl)pyrrolidin-3-yl)piperazin-1-yl)cyclohexyl)-6-(2-hydroxypropan-2-yl)-2H-indazol-5-yl)pyrrolo[1,2-b]pyridazine-7-carboxamide] | 34 | 95 | 98 | 0.8 |  | 
7 | COC[C@@H]1CN(C(=O)C2CN(c3cc(F)c([C@H]4CCC(=O)NC4=O)c(F)c3)C2)CCN1[C@H]1CC[C@H](n2cc3cc(NC(=O)c4ccc5cc(C#N)cnn45)c(C(C)(C)O)cc3n2)CC1 [Example 183, 3-cyano-N-(2-((1S,4r)-4-((S)-4-(1-(4-((R)-2,6-dioxopiperidin-3-yl)-3,5-difluorophenyl)azetidine-3-carbonyl)-2-(methoxymethyl)piperazin-1-yl)cyclohexyl)-6-(2-hydroxypropan-2-yl)-2H-indazol-5-yl)pyrrolo[1,2-b]pyridazine-7-carboxamide] | 35 | 95 | 98 | 0.3 |  | 
8 | CC(C)(O)c1cc2nn(C3CCC(N4C[C@@H]5CN(C6CCN(c7cc(F)c([C@H]8CCC(=O)NC8=O)c(F)c7)CC6)C[C@H]5C4)CC3)cc2cc1NC(=O)c1ccc2cc(C#N)cnn12 (stereo partly drawn) [Example 361, 3-cyano-N-(2-((1R,4r)-4-((3aR,6aR)-5-(1-(4-((R)-2,6-dioxopiperidin-3-yl)-3,5-difluorophenyl)piperidin-4-yl)hexahydropyrrolo[3,4-c]pyrrol-2(1H)-yl)cyclohexyl)-6-(2-hydroxypropan-2-yl)-2H-indazol-5-yl)pyrrolo[1,2-b]pyridazine-7-carboxamide] | 5 | 93 | 97 | 4.3 |  | 
9 | COC[C@@H]1CN(C2CCN(c3ccc(C4CCC(=O)NC4=O)nc3C)CC2)CCN1[C@H]1CC[C@H](n2cc3cc(NC(=O)c4ccc5cc(C#N)cnn45)c(C(C)(C)O)cc3n2)CC1 (stereo partly drawn) [Example 423, 3-cyano-N-(2-((1S,4r)-4-((2S)-4-(1-(6-(2,6-dioxopiperidin-3-yl)-2-methylpyridin-3-yl)piperidin-4-yl)-2-(methoxymethyl)piperazin-1-yl)cyclohexyl)-6-(2-hydroxypropan-2-yl)-2H-indazol-5-yl)pyrrolo[1,2-b]pyridazine-7-carboxamide] | 3 | 96 | 98 | 1.1 |  | 
10 | CC(C)(O)c1cc2nn(C34CC(N5CCN(CCc6cc(F)c([C@H]7CCC(=O)NC7=O)c(F)c6)CC5)(C3)C4)cc2cc1NC(=O)c1ccc2cc(C#N)cnn12 [Example 159, (R)-3-cyano-N-(2-(3-(4-(4-(2,6-dioxopiperidin-3-yl)-3,5-difluorophenethyl)piperazin-1-yl)bicyclo[1.1.1]pentan-1-yl)-6-(2-hydroxypropan-2-yl)-2H-indazol-5-yl)pyrrolo[1,2-b]pyridazine-7-carboxamide] | 5.2 | 94 | 95 | 1.5 |  | 
11 | CC(C)(O)c1cc2nn(C3CCN(C4CCN(C(=O)[C@@H]5CCN(c6cc(F)c([C@H]7CCC(=O)NC7=O)c(F)c6)C5)CC4)CC3)cc2cc1NC(=O)c1ccc2cc(C#N)cnn12 [Example 347, 3-cyano-N-(2-(1′-((R)-1-(4-((R)-2,6-dioxopiperidin-3-yl)-3,5-difluorophenyl)pyrrolidine-3-carbonyl)-[1,4′-bipiperidin]-4-yl)-6-(2-hydroxypropan-2-yl)-2H-indazol-5-yl)pyrrolo[1,2-b]pyridazine-7-carboxamide] | 25 | 103 | 96 | 1.3 | 93 | 2.2

Reference: patent US20250195513A1, “DEGRADATION OF IRAK4 BY CONJUGATION OF IRAK4 INHIBITORS WITH E3 LIGASE LIGAND AND METHODS OF USE” (BeiGene, Ltd., priority 2022, published 2025)
